Source: patent US7691901B2, “Carotenoid analogs or derivatives for the inhibition and amelioration of inflammation” (Cardax Pharmaceuticals Inc., priority 2004, dated 2010)

Test system: lipid peroxidation products
Test: Thioglycollate/Zymosan-induced peritonitis model: lipid oxidation products in peritoneal lavage by electrospray ionization tandem mass spectrometry
Format: in vivo, mice
Conditions: for 13-HODE MEAN / 13-HODE MEDIAN / Prostaglandin F2α (PGF2α) MEAN / Prostaglandin F2α (PGF2α) MEDIAN / 9-HETE/AA (ratio) MEAN / 9-HETE/AA (ratio) MEDIAN / 9-HODE MEAN / 9-HODE MEDIAN / 9-HETE MEAN / 9-HETE MEDIAN / Linoleic Acid MEAN / Linoleic Acid MEDIAN / Arachidonic Acid MEAN / Arachidonic Acid MEDIAN / PGF2a/AA (ratio) MEAN / PGF2a/AA (ratio) MEDIAN / 13-HODE/AA (ratio) MEAN / 13-HODE/AA (ratio) MEDIAN / 9-HODE/LA (ratio) MEAN / 9-HODE/LA (ratio) MEDIAN / 11-HETE MEAN / 11-HETE MEDIAN / 5-HETE MEAN / 5-HETE MEDIAN / 11-HETE/AA (ratio) MEAN / 11-HETE/AA (ratio) MEDIAN / 5-HETE/AA (ratio) MEAN / 5-HETE/AA (ratio) MEDIAN: 500 mg/kg oral gavage
Method: Thioglycollate/Zymosan—Induced Peritonitis Model: Wild-type mice were administered either 500 mg/kg body weight of disodium disuccinate astaxanthin (ddAst/Cardax™) in an oil emulsion vehicle, or normal saline (NS) as a negative control, by oral gavage at 24 hours intervals beginning 7 days prior to the induction of peritonitis. Peritonitis was induced experimentally as follows: mice were injected intraperitoneally with 1 ml of 4% by weight thioglycollate (Tg) broth, to induce the recruitment of proinflammatory cells to the peritoneum. Either 16 hours or 72 hours after recruitment, approximately half of the mice were injected intraperitoneally with 250 mg/kg body weight of zymosan (Z) for a further 4 hours. The mice not receiving zymosan underwent no further treatment. Peritoneal lavage was performed in control animals or animals treated with (ddAst) 16 hours post Tg injection, or 20 h following the combination of both Tg injection (16 hours) followed by Z injection (4 hours), as indicated (Tg/Z). Peritoneal lavages were performed with phosphate-buffered saline containing antioxidant (0.1 mM butylated hydroxytoluene (BHT)) and 2 mM of the metal chelator diethylenetriamine pentaacetic acid (DTPA) according to established practices in the art. The lavage suspensions were transferred to screw-capped tubes under an argon atmosphere, and immediately centrifuged at 1000 rpm in a table top microcentrifuge for 10 min at 4° C. to remove whole cells and debris. All analyses of lipid peroxidation products was performed on cell-free lavage supernatants. Cell pellets were resuspended in phosphate-buffered saline containing 0.1 mM BHT and 0.1 mM DTPA, and differential cell counts (macrophages, monocytes, eosinophils, lymphocytes, neutrophils, and erythrocytes) were performed on cytospun preparations of isolated cells according to established procedures in the art.
Electrospray ionization tandem mass spectrometry was used to simultaneously quantify individual molecular species of HETEs, HPETEs, the prostaglandin PGF2α, F2-isoprostanoids, hydroxy- and hydroperoxy-octadecadienoic acids (H(P)ODEs), and their precursors, arachidonic acid (AA) and linoleic acid (LA). Additionally, the molar ratios of o-tyrosine (oY/F). were measured.

[1] = 16 Hour Thioglycollate/4 Hour Zymosan, P-VALUE 0.165
[2] = 16 Hour Thioglycollate/4 Hour Zymosan, P-VALUE 0.250
[3] = 16 Hour Thioglycollate/4 Hour Zymosan, P-VALUE 0.272 NP
[4] = 16 Hour Thioglycollate/4 Hour Zymosan, P-VALUE 0.299
[5] = 16 Hour Thioglycollate/4 Hour Zymosan, P-VALUE 0.354
[6] = 16 Hour Thioglycollate/4 Hour Zymosan, P-VALUE 0.557
[7] = 16 Hour Thioglycollate/4 Hour Zymosan, P-VALUE 0.685 NP
[8] = 16 Hour Thioglycollate/4 Hour Zymosan, P-VALUE 0.772 NP
[9] = 16 Hour Thioglycollate/4 Hour Zymosan, P-VALUE 0.862 NP
[10] = 16 Hour Thioglycollate/4 Hour Zymosan, P-VALUE 0.900
[11] = 16 Hour Thioglycollate/4 Hour Zymosan, P-VALUE 0.954 NP
[12] = 16 Hour Thioglycollate/4 Hour Zymosan, P-VALUE 1.000 NP
[13] = 16 Hour Thioglycollate/4 Hour Zymosan
[14] = 16 Hour Thioglycollate, P-VALUE 0.018
[15] = 16 Hour Thioglycollate, P-VALUE 0.040
[16] = 16 Hour Thioglycollate, P-VALUE 0.096
[17] = 16 Hour Thioglycollate, P-VALUE 0.120
[18] = 16 Hour Thioglycollate, P-VALUE 0.172
[19] = 16 Hour Thioglycollate, P-VALUE 0.227 NP
[20] = 16 Hour Thioglycollate, P-VALUE 0.318 NP
[21] = 16 Hour Thioglycollate, P-VALUE 0.372 NP
[22] = 16 Hour Thioglycollate, P-VALUE 0.564 NP
[23] = 16 Hour Thioglycollate, P-VALUE 0.793 NP
[24] = 16 Hour Thioglycollate, P-VALUE 0.875 NP
[25] = 16 Hour Thioglycollate, P-VALUE 0.958 NP
[26] = 16 Hour Thioglycollate, P-VALUE 0.982
[27] = 16 Hour Thioglycollate, P-VALUE 0.986
[28] = 72 Hour Thioglycollate/4 Hour Zymosan, P-VALUE 0.001 NP
[29] = 72 Hour Thioglycollate/4 Hour Zymosan, P-VALUE 0.002 NP
[30] = 72 Hour Thioglycollate/4 Hour Zymosan, P-VALUE 0.006
[31] = 72 Hour Thioglycollate/4 Hour Zymosan, P-VALUE 0.008
[32] = 72 Hour Thioglycollate/4 Hour Zymosan, P-VALUE 0.010
[33] = 72 Hour Thioglycollate/4 Hour Zymosan, P-VALUE 0.018 NP
[34] = 72 Hour Thioglycollate/4 Hour Zymosan, P-VALUE 0.056 NP
[35] = 72 Hour Thioglycollate/4 Hour Zymosan, P-VALUE 0.118 NP
[36] = 72 Hour Thioglycollate/4 Hour Zymosan, P-VALUE 0.271
[37] = 72 Hour Thioglycollate/4 Hour Zymosan, P-VALUE 0.385 NP
[38] = 72 Hour Thioglycollate/4 Hour Zymosan, P-VALUE 0.629

CC1=C(/C=C/C(C)=C/C=C/C(C)=C/C=C/C=C(C)/C=C/C=C(C)/C=C/C2=C(C)C(=O)C(OC(=O)CCC(=O)O)CC2(C)C)C(C)(C)CC(OC(=O)CCC(=O)O)C1=O (stereo not drawn) [Cardax, disodium disuccinate astaxanthin]
13-HODE MEAN [1]: 5.689 pmol | 13-HODE MEDIAN [1]: 4.768 pmol | Prostaglandin F2α (PGF2α) MEAN [2]: 0.038 pmol | Prostaglandin F2α (PGF2α) MEDIAN [2]: 0.035 pmol | 9-HETE/AA (ratio) MEAN [3]: 0.529 | 9-HETE/AA (ratio) MEDIAN [3]: 0.472 | 9-HODE MEAN [4]: 2.767 pmol | 9-HODE MEDIAN [4]: 2.825 pmol | 9-HETE MEAN [5]: 0.559 pmol | 9-HETE MEDIAN [5]: 0.612 pmol | Linoleic Acid MEAN [6]: 13158 pmol | Linoleic Acid MEDIAN [6]: 10509 pmol | Arachidonic Acid MEAN [7]: 1208.5 pmol | Arachidonic Acid MEDIAN [7]: 1039.6 pmol | PGF2a/AA (ratio) MEAN [7]: 0.038 | PGF2a/AA (ratio) MEDIAN [7]: 0.025 | 13-HODE/AA (ratio) MEAN [8]: 0.456 | 13-HODE/AA (ratio) MEDIAN [8]: 0.376 | 9-HODE/LA (ratio) MEAN [9]: 0.245 | 9-HODE/LA (ratio) MEDIAN [9]: 0.201 | 11-HETE MEAN [9]: 0.654 pmol | 11-HETE MEDIAN [9]: 0.450 pmol | 5-HETE MEAN [10]: 1.082 pmol | 5-HETE MEDIAN [10]: 0.953 pmol | 11-HETE/AA (ratio) MEAN [11]: 0.669 | 11-HETE/AA (ratio) MEDIAN [11]: 0.453 | 5-HETE/AA (ratio) MEAN [12]: 0.997 | 5-HETE/AA (ratio) MEDIAN [12]: 0.770 | 5-oxo-ETE (pmol), MEAN [13]: 0.085 pmol | 5-oxo-ETE (ratio), MEAN [13]: 0.080 ratio | 8-iso-F2a (pmol), MEAN [13]: 0.012 pmol | 8-iso-F2a/AA (ratio), MEAN [13]: 0.011 ratio | 5-oxo-ETE (pmol), MEDIAN [13]: 0.083 pmol | 5-oxo-ETE (ratio), MEDIAN [13]: 0.081 ratio | 8-iso-F2a (pmol), MEDIAN [13]: 0.000 pmol | 8-iso-F2a/AA (ratio), MEDIAN [13]: 0.000 ratio | Arachidonic Acid MEAN [14]: 1791.6 pmol | Arachidonic Acid MEDIAN [14]: 1854.3 pmol | Linoleic Acid MEAN [15]: 22739 pmol | Linoleic Acid MEDIAN [15]: 22907 pmol | 13-HODE/AA (ratio) MEAN [16]: 0.905 | 13-HODE/AA (ratio) MEDIAN [16]: 0.920 | 9-HODE MEAN [17]: 5.367 pmol | 9-HODE MEDIAN [17]: 3.831 pmol | Prostaglandin F2α (PGF2α) MEAN [18]: 0.037 pmol | Prostaglandin F2α (PGF2α) MEDIAN [18]: 0.033 pmol | 9-HETE/AA (ratio) MEAN [19]: 0.476 | 9-HETE/AA (ratio) MEDIAN [19]: 0.448 | 5-HETE MEAN [20]: 0.334 pmol | 5-HETE MEDIAN [20]: 0.255 pmol | 11-HETE MEAN [21]: 0.434 pmol | 11-HETE MEDIAN [21]: 0.329 pmol | 9-HODE/LA (ratio) MEAN [22]: 0.292 | 9-HODE/LA (ratio) MEDIAN [22]: 0.255 | 11-HETE/AA (ratio) MEAN [23]: 0.239 | 11-HETE/AA (ratio) MEDIAN [23]: 0.195 | 5-HETE/AA (ratio) MEAN [24]: 0.218 | 5-HETE/AA (ratio) MEDIAN [24]: 0.151 | 9-HETE MEAN [25]: 0.826 pmol | 9-HETE MEDIAN [25]: 0.718 pmol | 13-HODE MEAN [26]: 18.838 pmol | 13-HODE MEDIAN [26]: 15.191 pmol | PGF2a/AA (ratio) MEAN [27]: 0.034 | PGF2a/AA (ratio) MEDIAN [27]: 0.018 | 5-oxo-ETE (pmol), MEAN (16 Hour Thioglycollate): 0.128 pmol | 5-oxo-ETE (ratio), MEAN (16 Hour Thioglycollate): 0.056 ratio | 8-iso-F2a (pmol), MEAN (16 Hour Thioglycollate): 0.052 pmol | 8-iso-F2a/AA (ratio), MEAN (16 Hour Thioglycollate): 0.044 ratio | 5-oxo-ETE (pmol), MEDIAN (16 Hour Thioglycollate): 0.078 pmol | 5-oxo-ETE (ratio), MEDIAN (16 Hour Thioglycollate): 0.067 ratio | 8-iso-F2a (pmol), MEDIAN (16 Hour Thioglycollate): 0.069 pmol | 8-iso-F2a/AA (ratio), MEDIAN (16 Hour Thioglycollate): 0.034 ratio | Arachidonic Acid MEAN [28]: 3554.3 pmol | Arachidonic Acid MEDIAN [28]: 2429.5 pmol | 5-HETE/AA (ratio) MEAN [29]: 0.369 | 5-HETE/AA (ratio) MEDIAN [29]: 0.333 | 9-HODE/LA (ratio) MEAN [30]: 0.132 | 9-HODE/LA (ratio) MEDIAN [30]: 0.134 | 11-HETE/AA (ratio) MEAN [31]: 0.253 | 11-HETE/AA (ratio) MEDIAN [31]: 0.237 | PGF2a/AA (ratio) MEAN [32]: 0.011 | PGF2a/AA (ratio) MEDIAN [32]: 0.012 | Linoleic Acid MEAN [33]: 33183 pmol | Linoleic Acid MEDIAN [33]: 27585 pmol | 9-HETE/AA (ratio) MEAN [34]: 0.253 | 9-HETE/AA (ratio) MEDIAN [34]: 0.244 | 9-HETE MEAN [35]: 0.917 pmol | 9-HETE MEDIAN [35]: 0.687 pmol | 13-HODE/AA (ratio) MEAN [35]: 0.229 | 13-HODE/AA (ratio) MEDIAN [35]: 0.186 | 13-HODE MEAN [36]: 7.181 pmol | 13-HODE MEDIAN [36]: 6.732 pmol | 5-HETE MEAN [37]: 1.236 pmol | 5-HETE MEDIAN [37]: 0.997 pmol | Prostaglandin F2α (PGF2α) MEAN [38]: 0.040 pmol | Prostaglandin F2α (PGF2α) MEDIAN [38]: 0.039 pmol
